Among the data in US20240067662A1, “KRAS INHIBITORS” (Bristol-Myers Squibb Company, priority 2022, published 2024) are IC50 values, retold here.

A word on the IC50: it is the concentration that gives 50% inhibition.

The assay concerns the target GMPPNP-loaded KRAS G12C (Homo sapiens, UniProt P01116, G12C). Put plainly: KRAS G12C RAF Disruption Assay (HTRF). The assay is classed as biochemical. Particulars: recombinant GMPPNP-loaded KRAS G12C (5 nM), 20 min with compound; GST-RAF1 RBD (9 nM); HTRF signal; read-out: KRASG12C RAF Disruption Assay (IC50). Summed up:
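The read-out is an HTRF 520/495 emission ratio, with IC50 taken from dose-response curves. Compound was first incubated for 20 min at room temperature with active-state KRAS G12C (GMPPNP, 5 nM) in Tris pH 7.5/NaCl/MgCl2/DTT/BSA. RAF1 RBD-GST (9 nM, 20 min) and SA-Tb (0.25 nM, 3 h) were added in turn.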
A general note: Time-resolved FRET reads energy transfer from a long-lived donor to a nearby acceptor.
On to `C#Cc1c(F)ccc2cc(O)cc(-c3ncc4c(N5CCN(C(=O)/C(F)=C/c6ccccn6)CC5)nc(OC[C@@H]5CCCN5CCCn5cc(CNC(=O)CCCC[C@@H]6SC[C@@H]7NC(=O)N[C@@H]76)nn5)nc4c3F)c12` [Compound 112, N-((1-(3-((S)-2-(((7-(8-ethynyl-7-fluoro-3-hydroxynaphthalen-1-yl)-8-fluoro-4-(4-((Z)-2-fluoro-3-(pyridin-2-yl)acryloyl)piperazin-1-yl)pyrido[4,3-d]pyrimidin-2-yl)oxy)methyl)pyrrolidin-1-yl)propyl)-1H-1,2,3-triazol-4-yl)methyl)-5-((3aS,4S,6aR)-2-oxohexahydro-1H-thieno[3,4-d]imidazol-4-yl)pentanamide], for which the IC50 was below 2 nM.

In the case of `C#Cc1c(F)ccc2cc(O)cc(-c3ncc4c(N5C[C@H]6CC[C@@H](C5)N6C(=O)/C(F)=C/c5ccncn5)nc(OC[C@@]56CCCN5C[C@H](F)C6)nc4c3F)c12` [Compound 18, (Z)-1-((1R, 5S)-3-(7-(8-ethynyl-7-fluoro-3-hydroxynaphthalen-1-yl)-8-fluoro-2-(((2R, 7aS)-2-fluorotetrahydro-1H-pyrrolizin-7a(5H)-yl)methoxy)pyrido[4,3-d]pyrimidin-4-yl)-3,8-diazabicyclo[3.2.1]octan-8-yl)-2-fluoro-3-(pyrimidin-4-yl)prop-2-en-1-one], the concentration for half-maximal inhibition (IC50) was found to be 25 nM.

As for `C#Cc1c(F)ccc2cccc(-c3ncc4c(N(C)[C@@H]5CCN(C(=O)/C(F)=C/c6ccccn6)C5)nc(OC[C@@]56CCCN5C[C@H](F)C6)nc4c3F)c12` [Compound 117, (Z)-1-((R)-3-((7-(8-ethynyl-7-fluoronaphthalen-1-yl)-8-fluoro-2-(((2R, 7aS)-2-fluorotetrahydro-IH-pyrrolizin-7a(5H)-yl)methoxy)pyrido[4,3-d]pyrimidin-4-yl)(methyl)amino)pyrrolidin-1-yl)-2-fluoro-3-(pyridin-2-yl)prop-2-en-1-one], the half-maximal inhibitory concentration (IC50) was found to be 9 nM.

As for “(Z)-1-(4-(7-(2-amino-7-fluorobenzo[d]thiazol-4-yl)-8-fluoro-2-(((2R, 7aS)-2-fluorotetrahydro-1H-pyrrolizin-7a(5H)-yl)methoxy)pyrido[4,3-d]pyrimidin-4-yl)piperazin-1-yl)-2-fluoro-3-(thiazol-2-yl)prop-2-en-1-one [Example 68]”, the IC50 was determined as 220 nM.

On to `C#Cc1cccc2cccc(-c3ncc4c(N(C)[C@@H]5CCN(C(=O)/C(F)=C/c6nccs6)C5)nc(OC[C@@]56CCCN5C[C@H](F)C6)nc4c3F)c12` [Compound 116, (Z)-1-((R)-3-((7-(8-ethynylnaphthalen-1-yl)-8-fluoro-2-(((2R, 7aS)-2-fluorotetrahydro-1H-pyrrolizin-7a(5H)-yl)methoxy)pyrido[4,3-d]pyrimidin-4-yl)(methyl)amino)pyrrolidin-1-yl)-2-fluoro-3-(thiazol-2-yl)prop-2-en-1-one], for which the IC50 was 27 nM.

Take `Cn1ncc2cccc(-c3ncc4c(N5CCN(C(=O)/C(F)=C/c6nccs6)CC5)nc(OC[C@@]56CCCN5C[C@H](F)C6)nc4c3F)c21` [Example 39, (Z)-2-fluoro-1-(4-(8-fluoro-2-(((2R, 7aS)-2-fluorotetrahydro-1H-pyrrolizin-7a(5H)-yl)methoxy)-7-(I-methyl-1H-indazol-7-yl)pyrido[4,3-d]pyrimidin-4-yl)piperazin-1-yl)-3-(thiazol-2-yl)prop-2-en-1-one]: the half-maximal inhibitory concentration (IC50) turned out to be 5100 nM.

Turning to `N#CC[C@H]1CN(c2nc(OC[C@@]34CCCN3C[C@H](F)C4)nc3c(F)c(-c4csc5ccccc45)ncc23)CCN1C(=O)/C(F)=C/c1nccs1` [Example 34, 2-((S)-4-(7-(benzo[b]thiophen-3-yl)-8-fluoro-2-(((2R, 7aS)-2-fluorotetrahydro-1H-pyrrolizin-7a(5H)-yl)methoxy)pyrido[4,3-d]pyrimidin-4-yl)-1-((Z)-2-fluoro-3-(thiazol-2-yl)acryloyl)piperazin-2-yl)acetonitrile], the half-maximal inhibitory concentration (IC50) is 400 nM.

For the compound `N#CC[C@H]1CN(c2nc(OC[C@@]34CCCN3C[C@H](F)C4)nc3c(F)c(-c4cccc(O)c4)ncc23)CCN1C(=O)/C(F)=C/c1nccs1` [Example 72, 2-((S)-4-(8-fluoro-2-(((2R, 7aS)-2-fluorotetrahydro-1H-pyrrolizin-7a(5H)-yl)methoxy)-7-(3-hydroxyphenyl)pyrido[4,3-d]pyrimidin-4-yl)-1-((Z)-2-fluoro-3-(thiazol-2-yl)acryloyl)piperazin-2-yl)acetonitrile], the IC50 was determined as 440 nM.

Turning to `N#CC[C@H]1CN(c2nc(OC[C@@]34CCCN3C[C@H](F)C4)nc3c(F)c(-c4cc(O)ccc4C(F)(F)F)ncc23)CCN1C(=O)/C(F)=C/c1nccs1` [Compound 95, 2-((S)-4-(8-fluoro-2-(((2R, 7aS)-2-fluorotetrahydro-1H-pyrrolizin-7a(5H)-yl)methoxy)-7-(5-hydroxy-2-(trifluoromethyl)phenyl)pyrido[4,3-d]pyrimidin-4-yl)-1-((Z)-2-fluoro-3-(thiazol-2-yl)acryloyl)piperazin-2-yl)acetonitrile], the IC50 was determined as 14 nM.

Consider `C#Cc1cccc2cccc(-c3ncc4c(N5CC6(CCN(C(=O)/C(F)=C/c7ccccn7)CC6)C5)nc(OC[C@@]56CCCN5C[C@H](F)C6)nc4c3F)c12` [Compound 91, (Z)-1-(2-(7-(8-ethynylnaphthalen-1-yl)-8-fluoro-2-(((2R, 7aS)-2-fluorotetrahydro-1H-pyrrolizin-7a(5H)-yl)methoxy)pyrido[4,3-d]pyrimidin-4-yl)-2,7-diazaspiro[3.5]nonan-7-yl)-2-fluoro-3-(pyridin-2-yl)prop-2-en-1-one], for which the IC50 is 5000 nM.

In the case of `C#Cc1cccc2cccc(-c3ncc4c(N(C)[C@H]5CN(C(=O)/C(F)=C/c6nccs6)C[C@H]5F)nc(OC[C@@]56CCCN5C[C@H](F)C6)nc4c3F)c12` [Compound 129, (Z)-1-((3S,4R)-3-((7-(8-ethynylnaphthalen-1-yl)-8-fluoro-2-(((2R, 7aS)-2-fluorotetrahydro-1H-pyrrolizin-7a(5H)-yl)methoxy)pyrido[4,3-d]pyrimidin-4-yl)(methyl)amino)-4-fluoropyrrolidin-1-yl)-2-fluoro-3-(thiazol-2-yl)prop-2-en-1-one], the IC50 turned out to be 200 nM.

With `C#Cc1cccc2cccc(-c3ncc4c(N5CCN(C(=O)/C(F)=C/c6ccccn6)C[C@@H]5C)nc(OC[C@@]56CCCN5C[C@H](F)C6)nc4c3F)c12` [Example 63, (Z)-1-((S)-4-(7-(8-ethynylnaphthalen-1-yl)-8-fluoro-2-(((2R, 7aS)-2-fluorotetrahydro-1H-pyrrolizin-7a(5H)-yl)methoxy)pyrido[4,3-d]pyrimidin-4-yl)-3-methylpiperazin-1-yl)-2-fluoro-3-(pyridin-2-yl)prop-2-en-1-one], the 50% inhibitory concentration (IC50) was 180 nM.

As for `C#Cc1cccc2cccc(-c3ncc4c(N5CCN(C(=O)/C(Cl)=C/c6ccccn6)CC5)nc(OC[C@@]56CCCN5C[C@H](F)C6)nc4c3F)c12` [Compound 126, (Z)-2-chloro-1-(4-(7-(8-ethynylnaphthalen-1-yl)-8-fluoro-2-(((2R, 7aS)-2-fluorotetrahydro-1H-pyrrolizin-7a(5H)-yl)methoxy)pyrido[4,3-d]pyrimidin-4-yl)piperazin-1-yl)-3-(pyridin-2-yl)prop-2-en-1-one], the concentration for half-maximal inhibition (IC50) came out at 47000 nM.

For the compound `Cn1ncc2cccc(-c3ncc4c(N5CCN(C(=O)/C(F)=C/c6nccs6)[C@@H](CC#N)C5)nc(OC[C@@]56CCCN5C[C@H](F)C6)nc4c3F)c21` [Example 52, 2-((S)-4-(8-fluoro-2-(((2R, 7aS)-2-fluorotetrahydro-1H-pyrrolizin-7a(5H)-yl)methoxy)-7-(1-methyl-1H-indazol-7-yl)pyrido[4,3-d]pyrimidin-4-yl)-1-((Z)-2-fluoro-3-(thiazol-2-yl)acryloyl)piperazin-2-yl)acetonitrile], the IC50 amounted to 430 nM.

Consider `C#Cc1ccc(F)c2cccc(-c3ncc4c(N5CCN(C(=O)/C(F)=C/c6ncccn6)CC5)nc(OC[C@@]56CCCN5C[C@H](F)C6)nc4c3F)c12` [Compound 97, (Z)-1-(4-(7-(8-ethynyl-5-fluoronaphthalen-1-yl)-8-fluoro-2-(((2R, 7aS)-2-fluorotetrahydro-1H-pyrrolizin-7a(5H)-yl)methoxy)pyrido[4,3-d]pyrimidin-4-yl)piperazin-1-yl)-2-fluoro-3-(pyrimidin-2-yl)prop-2-en-1-one], for which the 50% inhibitory concentration (IC50) was found to be 550 nM.
